Values of other authors, collected in patent US12590297B2, “Differentiation method” (Koninklijke Nederlandse Akademie Van Wetenschappen, priority 2016, dated 2026).

Experiments:
ALK5 (TGF-βR1) = target: T1, ALK5 (TGF-βR1) (Homo sapiens, UniProt P36897); conditions: high concentrations; p38 MAP kinase inhibitor; cited from earlier work
T1 sequence (P36897 34-503): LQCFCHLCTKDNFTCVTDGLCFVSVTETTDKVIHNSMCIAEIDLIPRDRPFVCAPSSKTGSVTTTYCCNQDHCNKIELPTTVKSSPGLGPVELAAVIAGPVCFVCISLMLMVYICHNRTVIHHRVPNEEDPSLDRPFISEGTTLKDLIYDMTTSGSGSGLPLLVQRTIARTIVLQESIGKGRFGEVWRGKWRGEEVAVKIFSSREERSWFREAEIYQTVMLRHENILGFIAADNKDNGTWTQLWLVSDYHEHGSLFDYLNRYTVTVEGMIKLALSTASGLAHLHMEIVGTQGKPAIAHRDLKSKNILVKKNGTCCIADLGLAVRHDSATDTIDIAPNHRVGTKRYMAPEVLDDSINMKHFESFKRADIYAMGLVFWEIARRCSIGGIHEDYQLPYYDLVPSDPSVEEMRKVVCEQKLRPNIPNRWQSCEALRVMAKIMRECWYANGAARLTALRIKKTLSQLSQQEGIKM

glucocorticoid receptor = target: T2, glucocorticoid receptor (Homo sapiens, UniProt P04150); conditions: in comparison to cortisol; oral dosing; cited from earlier work
T2 sequence (P04150 1-777): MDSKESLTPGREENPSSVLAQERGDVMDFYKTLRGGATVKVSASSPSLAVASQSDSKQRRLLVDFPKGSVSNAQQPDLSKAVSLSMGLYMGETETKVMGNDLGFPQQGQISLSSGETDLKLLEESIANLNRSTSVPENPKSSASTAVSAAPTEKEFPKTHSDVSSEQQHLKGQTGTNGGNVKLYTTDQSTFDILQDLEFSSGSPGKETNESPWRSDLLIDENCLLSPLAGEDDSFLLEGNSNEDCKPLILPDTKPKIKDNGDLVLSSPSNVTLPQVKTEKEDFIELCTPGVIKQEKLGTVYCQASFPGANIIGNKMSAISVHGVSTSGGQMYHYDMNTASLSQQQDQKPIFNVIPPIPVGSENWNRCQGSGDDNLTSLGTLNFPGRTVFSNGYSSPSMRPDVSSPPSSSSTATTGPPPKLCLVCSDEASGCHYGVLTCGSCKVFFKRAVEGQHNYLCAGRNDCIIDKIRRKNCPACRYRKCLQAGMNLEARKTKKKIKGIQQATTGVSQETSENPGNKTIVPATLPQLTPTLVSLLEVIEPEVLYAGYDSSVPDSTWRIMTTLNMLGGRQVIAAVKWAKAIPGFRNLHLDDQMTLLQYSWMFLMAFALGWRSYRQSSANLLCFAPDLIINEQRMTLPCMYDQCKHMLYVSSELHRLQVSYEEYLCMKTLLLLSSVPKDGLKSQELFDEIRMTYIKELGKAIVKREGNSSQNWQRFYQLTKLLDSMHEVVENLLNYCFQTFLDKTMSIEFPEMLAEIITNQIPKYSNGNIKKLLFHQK

SMILES	concentration at which thought to inhibit ALK5 (ALK5 (TGF-βR1)) [µM]	Glucocorticoid potency (glucocorticoid receptor)
C[S+]([O-])c1ccc(-c2nc(-c3ccc(F)cc3)c(-c3ccncc3)[nH]2)cc1 (centres unmarked) [SB-203580]	≥ 10	
C[C@]12C=CC(=O)C=C1CC[C@H]1[C@@H]3C[C@@H](O)[C@](O)(C(=O)CO)[C@@]3(C)C[C@H](O)[C@@]12F [Triamcinolone]		5
C[C@]12C=CC(=O)C=C1CC[C@@H]1[C@@H]2[C@@H](O)C[C@@]2(C)[C@H]1CC[C@]2(O)C(=O)CO [Prednisolone]		4
C[C@]12CCC(=O)C=C1CC[C@@H]1[C@@H]2[C@@H](O)C[C@@]2(C)[C@H]1CC[C@]2(O)C(=O)CO [Cortisol (hydrocortisone), Cortisol]		1
C[C@]12CCC(=O)C=C1CC[C@@H]1[C@@H]2C(=O)C[C@@]2(C)[C@H]1CC[C@]2(O)C(=O)CO [Cortisone]		0.8
